The record followed here is PubChem BioAssay (NCI).

The structures appear in SMILES notation.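 Where inhibition never reached the appropriate level, the endpoint shown equals the highest concentration tested. Otherwise, values were interpolated linearly from a five-concentration, 48-hour dose response in 96-well plates. GI50 = concentration required for 50% inhibition of growth. TGI marks complete inhibition of growth.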

Experiment in all cases: NCI-60 cell line screen, 48 h
The subject of assay [1] is NCI-H226 lung.
Assay [2] relates to RPMI-8226 leukemia.
Assay [3] relates to HCC-2998 colon.
The subject of assay [4] is MCF7 breast.
Assay [5] deals with SF-268 CNS.
Assay [6] has as its system NCI-H460 lung.
Assay [7] has as its system UACC-257 melanoma.
Assay [8] has as its system OVCAR-5 ovarian.
The subject of assay [9] is MDA-MB-231 breast.
Assay [10] relates to A549 NSCLC.

As to `CCOC(=O)c1[nH]c(Br)c(-c2ccc(Br)cc2)c1Br`, the TGI was 6.88 µM in assay [1]; 3.92 µM in assay [2]; over 100 µM in [3]; over 100 µM in [4]; 34.8 µM in [5]; over 100 µM in assay [6]. For the same compound, the TGI was 42.9 µM in assay [7], over 100 µM in assay [8], 7.07 µM in assay [9] and 29.8 µM in assay [10]. The GI50 was 0.357 µM in [2]; 11.6 µM in assay [3]; 0.895 µM in assay [4]; 0.836 µM in assay [5]; 0.597 µM in assay [7]; 5.77 µM in assay [8]. In addition, the values for the GI50 in assay [9] and in [10] were 0.782 µM and 8.15 µM, respectively.

With `Cc1ccccc1N=Nc1ccc(NC(=O)c2ccnn2C)c(C)c1`, the GI50 in [1] was 15 µM; in [2], 3.41 µM; in assay [3] it was over 100 µM; in [4], 17.8 µM; in [5] it was 31.7 µM; in assay [6], 26.5 µM. The GI50 in assay [7] is 49 µM; in assay [8] it was over 100 µM; in [9] it was 20.2 µM; in assay [10] it was 73.9 µM. The TGI in [1] was 89.6 µM; in assay [2], over 100 µM; in assay [3] it was over 100 µM; in [4] it was over 100 µM; in [5] it was over 100 µM; in [6], over 100 µM. For the same compound, the TGI in assay [7] was over 100 µM; in [8], over 100 µM; in [9], 78.2 µM; in assay [10] it was over 100 µM.

Consider `COc1ccc(/C=C/C(=O)c2ccc(SC)cc2)cc1OC`, for which the GI50 in assay [1] was 8.42 µM; in assay [2], 4.02 µM; in assay [3], 3.27 µM; in [4], over 100 µM; in assay [5] it was 22.3 µM; in [6], 70.6 µM. The GI50 is 17 µM in assay [7], 16.4 µM in [8], 9.05 µM in assay [9] and 15.8 µM in assay [10]. For the same compound, the TGI in assay [1] is 45.1 µM; in assay [2], 21.2 µM; in [3] it was 12.1 µM; in assay [4], over 100 µM; in [5], 63.8 µM; in assay [6], over 100 µM. Further, the TGI came to 30.9 µM in assay [7], 31.7 µM in assay [8], 33.7 µM in [9] and 42.7 µM in [10].

In the case of `C=C1C(=O)O[C@H]2[C@H]1CC/C(Cn1cc(-c3cc(C(F)(F)F)cc(C(F)(F)F)c3)nn1)=C\CC[C@@]1(C)O[C@@H]21`, the GI50 is 1.65 µM in assay [1]; 0.221 µM in assay [2]; 1.17 µM in assay [3]; 0.198 µM in assay [4]; 1.08 µM in assay [5]; 1.22 µM in assay [6]. In addition, the GI50 in [7] was 1.46 µM; in assay [8] it was 1.1 µM; in assay [9], 0.333 µM; in assay [10] it was 1.36 µM. Moreover, the TGI was found to be 3.56 µM in assay [1]; 0.522 µM in [2]; 2.51 µM in assay [3]; 1.19 µM in [4]; 2.49 µM in assay [5]; 2.67 µM in assay [6]. For the same compound, the TGI in [7] came out at 2.91 µM; in assay [8] it was 2.48 µM; in assay [9], 1.06 µM; in assay [10] it was 3.01 µM.

Consider `Cc1ccc(-n2c3c(c4c(CN(C)C)c(O)ccc42)CCc2ccccc2C3=O)cc1`, for which the GI50 in assay [1] is 18.1 µM; in assay [2] it was 11 µM; in assay [3], 12.2 µM; in [4], 19 µM; in assay [5], 19.8 µM; in assay [6], 18.3 µM. For the same compound, the GI50 in assay [7] was 17.7 µM; in assay [8], 19.7 µM; in assay [9], 14.9 µM; in assay [10], 16.7 µM. The TGI was determined as 37 µM in [1]; 30.5 µM in assay [2]; 24.9 µM in assay [3]; 38.8 µM in assay [4]; 50.5 µM in [5]; 41.9 µM in [6]. Further, the TGI in assay [7] was determined as 34 µM; in [8], 52.9 µM; in assay [9] it was 31 µM; in assay [10] it was 33.8 µM.

For the compound `COc1ccc2c(=O)c3ccoc3n(CC=C(C)C)c2c1`, the TGI in assay [1], in assay [2], in [3], in assay [4], in assay [5] and in [6] was over 100 µM in each case. The TGI in [7], in [8], in assay [9] and in [10] was over 100 µM throughout.

`COc1cc2cc(Oc3ccc(NC(=O)Nc4cccc(C(F)(F)F)c4)cc3)c(C)nc2cc1OC`: the GI50 in [1] was 1.8 µM; in assay [2], 1.05 µM; in assay [3], 2.59 µM; in assay [4], 1.34 µM; in [5] it was 2.57 µM; in assay [6], 1.6 µM. Also, the GI50 in assay [7] is 1.09 µM; in [8], 3.02 µM; in assay [9], 1.13 µM; in assay [10] it was 1.47 µM. Moreover, the TGI stood at 5.6 µM in assay [1]; 2.96 µM in assay [2]; 50 µM in assay [3]; 5.43 µM in [4]; 15.5 µM in [5]; 6.02 µM in assay [6]. Besides, the TGI in [7] was determined as 3.66 µM; in assay [8], 13 µM; in [9] it was 4.15 µM; in assay [10] it was 6.49 µM.

Consider `Cc1c(-c2c(-c3ccc(F)o3)sc3ncnc(O[C@H](Cc4ccccc4OCc4ccnn4CC(F)(F)F)C(=O)O)c23)ccc(OCCN2CCN(C)CC2)c1Cl`, for which the GI50 was 5.89 µM in [1]; under 0.0147 µM in [2]; 3.48 µM in assay [3]; 0.375 µM in assay [4]; 4.46 µM in assay [5]; 4.17 µM in [6]. Further, the GI50 in [7] was 5.24 µM; in assay [8] it was 4.81 µM; in assay [9], 3.8 µM; in assay [10] it was 13.4 µM. The TGI is 15.5 µM in [1]; 0.261 µM in assay [2]; 7.57 µM in assay [3]; 4.61 µM in assay [4]; 11.4 µM in assay [5]; 10 µM in [6]. Further, the TGI in assay [7] worked out at 12.9 µM; in assay [8], 14.8 µM; in [9], 7.84 µM; in assay [10], 26.9 µM.

As to `COc1cc2c3c(n(CCCN)c(=O)c2cc1OC)-c1cc2c(cc1/C3=C\CCN)OCO2`, the GI50 in assay [1] was 1.45 µM; in assay [2], 2.01 µM; in assay [3], 0.382 µM; in [4], 0.692 µM; in assay [5], 0.993 µM; in [6], 1.06 µM. Moreover, the GI50 in [7] was 8.29 µM; in assay [8], 4.29 µM; in assay [9], 2.5 µM; in assay [10], 3.19 µM. Further, the TGI in assay [1] is 5.9 µM; in [2], over 40.3 µM; in [3], 1.77 µM; in assay [5], 6.89 µM; in assay [6], 7.53 µM; in assay [7], 19.2 µM. Moreover, the results for the TGI in [8], in assay [9] and in assay [10] were over 26.1 µM, 11.2 µM and over 30.3 µM, respectively.

For `O=C1/C(=C/c2ccccc2)CN(C(=O)c2cccnc2)C/C1=C\c1ccccc1`, the GI50 in [1] was 3.12 µM; in assay [2] it was 0.318 µM; in assay [3], 0.939 µM; in assay [4], 0.322 µM; in assay [5], 2.78 µM; in assay [6], 2.58 µM. For the same compound, the GI50 was 3.2 µM in assay [7], 2 µM in [8], 1.92 µM in assay [9] and 3.1 µM in assay [10]. In addition, the TGI in assay [1] was determined as 9.79 µM; in [2] it was 1.44 µM; in [3] it was 2.27 µM; in assay [4], 1.46 µM; in [5], 13.7 µM; in assay [6] it was 11 µM. For the same compound, the TGI worked out at 11 µM in assay [7], 5.13 µM in assay [8], 4.83 µM in assay [9] and 12.2 µM in [10].

For `Nc1c(Br)cc(Br)c2c1[nH]c(=O)c1ccccc12`, the GI50 is 2.75 µM in assay [1]; 9.89 µM in assay [2]; over 100 µM in assay [3]; 0.577 µM in assay [4]; 9.72 µM in assay [5]; 3.33 µM in assay [6]. For the same compound, the GI50 in assay [7] is 21.7 µM; in assay [8], 25.7 µM; in [9], 2.36 µM; in [10], 6.7 µM. Moreover, the TGI in [1] is 12.7 µM; in assay [2], over 100 µM; in [3], over 100 µM; in [4], over 100 µM; in assay [5] it was over 69.3 µM; in assay [6], 14.6 µM. Also, the TGI in assay [7] is over 100 µM; in assay [8], over 100 µM; in [9], 61.1 µM; in [10], over 100 µM.

For the compound `O=C(/C=C/c1cccnc1)NCCCCC1CCCN(C(=O)c2ccccc2)C1` (stereo unspecified), the GI50 in [1] was over 79.5 µM; in assay [2], under 0.01 µM; in [3] it was 0.974 µM; in [4] it was 37.5 µM; in [5] it was over 28.4 µM; in assay [6] it was 0.0227 µM. Also, the GI50 is over 76.8 µM in [7], over 100 µM in [9] and 0.0752 µM in [10]. The TGI in [1], in assay [2], in [3], in assay [4], in assay [5] and in assay [6] was over 100 µM each time. Moreover, the TGI in assay [7], in assay [8], in assay [9] and in assay [10] was over 100 µM each time.

Take `COC(=O)c1c2c(c(C)[n+]([O-])c1C)C(=O)C=C(NCc1ccc(F)c(Cl)c1)C2=O`: the GI50 is 1.26 µM in assay [1]; 0.839 µM in [2]; 0.187 µM in assay [3]; 0.169 µM in assay [4]; 1.01 µM in assay [5]; 0.264 µM in [6]. The GI50 in assay [7] was 0.171 µM; in assay [8], 1.16 µM; in assay [9], 0.269 µM; in [10], 0.352 µM. Also, the TGI in assay [1] worked out at 3.26 µM; in assay [2], 3.93 µM; in assay [3], 1.41 µM; in [4] it was 0.892 µM; in assay [5], 2.81 µM; in assay [6], 1.4 µM. Further, the TGI in [7] is 0.64 µM; in assay [8] it was 2.69 µM; in assay [9] it was 3.42 µM; in assay [10] it was 1.95 µM.

`NC(N)=N/N=C\c1cccc(OCc2ccccc2)c1`: the GI50 was 6.74 µM in assay [1]; 2.33 µM in assay [2]; 1.81 µM in assay [3]; 1.77 µM in assay [4]; 10.9 µM in assay [5]; 2.55 µM in [6]. For the same compound, the GI50 is 1.82 µM in assay [7], 11.5 µM in assay [8], 2.37 µM in assay [9] and 9.2 µM in [10]. Besides, the TGI was determined as 25.9 µM in [1]; 8.17 µM in assay [2]; 3.54 µM in [3]; 3.75 µM in assay [4]; 25 µM in [5]; 7.79 µM in assay [6]. Also, the TGI in assay [7] came to 4.07 µM; in assay [8] it was 33.7 µM; in assay [9], 6.11 µM; in assay [10], 24.1 µM.

Regarding `O=C1CCCCCCCC/C=C\CC(c2ccco2)O1` (stereo unspecified), the GI50 in assay [1] is 21 µM; in assay [2] it was 43.2 µM; in assay [3], over 100 µM; in [4], 4.81 µM; in [5], 30.8 µM; in assay [6], 76.5 µM. Moreover, the GI50 in [7] was 24.2 µM; in assay [8], 22.5 µM; in [9], 14.6 µM; in assay [10], 46 µM. In addition, the TGI in assay [1] was 64.1 µM; in assay [2], over 100 µM; in assay [3] it was over 100 µM; in [4], over 100 µM; in assay [5], over 100 µM; in assay [6] it was over 100 µM. The TGI in assay [7] is 72.5 µM; in [8], over 100 µM; in assay [9] it was 41.9 µM; in assay [10] it was over 100 µM.
